Experimental data reported in ChEMBL document CHEMBL1201862, “PubChem BioAssay data set” (2004).
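Results reflect a 48-hour exposure of cells in 96-well plates to compound at five concentrations. Here, GI50 denotes the concentration required for 50% inhibition of growth.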 Activity calls are given as the source filed them. No stated cut-off is given here; in the data, active = GI50 up to about 1.1 µM and inactive = higher.

Legend:
Assay in all cases: NCI anticancer screen, dose series, 48 h
ACHN = system: ACHN
HOP-62 = system: HOP-62
HT-29 = system: HT-29
IGROV-1 = system: IGROV-1
K562 = system: K562
M14 = system: M14
MDA-MB-435 = system: MDA-MB-435
MOLT-4 = system: MOLT-4
NCI-H226 = system: NCI-H226
OVCAR-4 = system: OVCAR-4
PC-3 = system: PC-3
SK-MEL-5 = system: SK-MEL-5
SK-OV-3 = system: SK-OV-3
SW-620 = system: SW-620
U-251 = system: U-251
UACC-257 = system: UACC-257
UACC-62 = system: UACC-62

| Structure (SMILES) | GI50 (ACHN) | GI50 (HOP-62) | GI50 (HT-29) | GI50 (IGROV-1) | GI50 (K562) | GI50 (M14) | GI50 (MDA-MB-435) | GI50 (MOLT-4) | GI50 (NCI-H226) | GI50 (OVCAR-4) | GI50 (PC-3) | GI50 (SK-MEL-5) | GI50 (SK-OV-3) | GI50 (SW-620) | GI50 (U-251) | GI50 (UACC-257) | GI50 (UACC-62) |
| --- | --- | --- | --- | --- | --- | --- | --- | --- | --- | --- | --- | --- | --- | --- | --- | --- | --- |
| COc1ccc2c(c1)C(=O)CCc1cc(OC)c(OC)c(OC)c1-2 | 0.0863 µM (active) | 0.0662 µM (active) | 0.0374 µM (active) | 0.0553 µM (active) | 0.0366 µM (active) | 0.0347 µM (active) | 0.0204 µM (active) | 0.0564 µM (active) | 0.0258 µM (active) | 0.0582 µM (active) | 0.0474 µM (active) | 0.0521 µM (active) | < 0.01 µM (active) | 0.0716 µM (active) | 0.0285 µM (active) | < 0.01 µM (active) | 0.075 µM (active) |
| OCCSCC(O)Cn1cnc2c(O)nc(Nc3ccccc3)nc21 (stereo unspecified) | > 100 µM (inactive) | > 100 µM (inactive) | > 100 µM (inactive) | > 100 µM (inactive) | – | > 100 µM (inactive) | > 100 µM (inactive) | > 100 µM (inactive) | > 100 µM (inactive) | > 100 µM (inactive) | > 100 µM (inactive) | > 100 µM (inactive) | > 100 µM (inactive) | > 100 µM (inactive) | > 100 µM (inactive) | > 100 µM (inactive) | > 100 µM (inactive) |
| FC(F)(F)c1nc2cc(SSc3cc4nc(C(F)(F)F)[nH]c4cc3Cl)c(Cl)cc2[nH]1 | > 100 µM (inactive) | > 100 µM (inactive) | > 100 µM (inactive) | > 100 µM (inactive) | > 100 µM (inactive) | > 100 µM (inactive) | > 100 µM (inactive) | > 100 µM (inactive) | 53.3 µM (inactive) | 92.5 µM (inactive) | > 100 µM (inactive) | 65.3 µM (inactive) | > 100 µM (inactive) | > 100 µM (inactive) | > 100 µM (inactive) | 93.1 µM (inactive) | > 100 µM (inactive) |
| COc1ccc(/C=C2\NC(=S)N(CN3CCCCC3)C2=O)cc1 | 33.9 µM (inactive) | > 100 µM (inactive) | 18.3 µM (inactive) | 44.2 µM (inactive) | 34.5 µM (inactive) | 50.7 µM (inactive) | 52.7 µM (inactive) | 28.6 µM (inactive) | 42.2 µM (inactive) | 20 µM (inactive) | 78.7 µM (inactive) | 36.1 µM (inactive) | > 100 µM (inactive) | 29.3 µM (inactive) | 61.7 µM (inactive) | – | 44.7 µM (inactive) |
| CCOC(=O)c1c(CN2CCOCC2)n(Cc2ccccc2)c2c1cc(O)c1nc(C)c(C)nc12 | 28.6 µM (inactive) | 21.3 µM (inactive) | > 100 µM (inactive) | – | 84.9 µM (inactive) | > 100 µM (inactive) | > 100 µM (inactive) | 71 µM (inactive) | 45.5 µM (inactive) | 47.8 µM (inactive) | 17.5 µM (inactive) | 22.6 µM (inactive) | 33.3 µM (inactive) | > 100 µM (inactive) | 27.4 µM (inactive) | > 100 µM (inactive) | 38.7 µM (inactive) |
| CN(C)C(=S)C(Cl)(c1ccccc1)c1ccccc1 | 90.2 µM (inactive) | > 100 µM (inactive) | 22.6 µM (inactive) | > 100 µM (inactive) | 36.2 µM (inactive) | > 100 µM (inactive) | 37.1 µM (inactive) | 11.8 µM (inactive) | 53.7 µM (inactive) | 35.4 µM (inactive) | 35.6 µM (inactive) | 36.4 µM (inactive) | > 100 µM (inactive) | 34 µM (inactive) | 36.1 µM (inactive) | > 100 µM (inactive) | > 100 µM (inactive) |
| CC(C)CCCC(C)[C@H]1CCC2[C@@H]3CCC4Cc5nc6c(nc5C[C@]4(C)C3CC[C@@]21C)CC1CC[C@@H]2C(CC[C@@]3(C)C2CC[C@@H]3C(C)CCCC(C)C)[C@@]1(C)C6 (stereo partly specified) | > 100 µM (inactive) | > 100 µM (inactive) | > 100 µM (inactive) | > 100 µM (inactive) | > 100 µM (inactive) | > 100 µM (inactive) | > 100 µM (inactive) | > 100 µM (inactive) | > 100 µM (inactive) | > 100 µM (inactive) | > 100 µM (inactive) | > 100 µM (inactive) | > 100 µM (inactive) | > 100 µM (inactive) | > 100 µM (inactive) | > 100 µM (inactive) | > 100 µM (inactive) |
| C=C1CC2(CCCC3(CC(=C)C(=O)O3)C2(C)C)OC1=O (stereo unspecified) | 1.07 µM (active) | 13.9 µM (inactive) | 3.82 µM (inactive) | 8.83 µM (inactive) | 3.38 µM (inactive) | 2.56 µM (inactive) | 2.75 µM (inactive) | 0.302 µM (active) | 2.22 µM (inactive) | 4.85 µM (inactive) | 8.09 µM (inactive) | 14.8 µM (inactive) | 20.5 µM (inactive) | 1.39 µM (inactive) | 1.42 µM (inactive) | 1.85 µM (inactive) | 2 µM (inactive) |
| Nc1nc(Br)nc2ncn(C3CC(O)C(CO)O3)c12 (stereo unspecified) | 10.7 µM (inactive) | > 100 µM (inactive) | 52.7 µM (inactive) | > 100 µM (inactive) | 23.4 µM (inactive) | 3.05 µM (inactive) | > 100 µM (inactive) | 0.0212 µM (active) | > 68.1 µM (inactive) | > 100 µM (inactive) | > 100 µM (inactive) | 60 µM (inactive) | > 100 µM (inactive) | > 24.8 µM (inactive) | > 53 µM (inactive) | > 100 µM (inactive) | 11.9 µM (inactive) |
| CCCCc1ccc(-n2sc3ncc([N+](=O)[O-])cc3c2=O)cc1 | 14.8 µM (inactive) | 14.4 µM (inactive) | 13.8 µM (inactive) | 13.8 µM (inactive) | – | 17.4 µM (inactive) | 14.4 µM (inactive) | 20.3 µM (inactive) | 12.8 µM (inactive) | 6.58 µM (inactive) | 5.55 µM (inactive) | 14.6 µM (inactive) | > 100 µM (inactive) | 16.8 µM (inactive) | 12.6 µM (inactive) | 16.6 µM (inactive) | 8.69 µM (inactive) |
| CCN(CC)C(=O)N1CN(c2ccccc2)C2(CCN(CCCC3(c4ccc(F)cc4)OCCO3)CC2)C1=O | > 10 µM (inactive) | 4.26 µM (inactive) | – | – | – | 40.2 µM (inactive) | 18.6 µM (inactive) | 10.4 µM (inactive) | 30.5 µM (inactive) | 22.4 µM (inactive) | 17.5 µM (inactive) | 12.9 µM (inactive) | 24.4 µM (inactive) | 18 µM (inactive) | 16.6 µM (inactive) | 12.4 µM (inactive) | 17.4 µM (inactive) |
| Cc1cn(C2CC(O)C(Cn3nncc3Cn3ccc(=O)[nH]c3=O)O2)c(=O)[nH]c1=O (stereo unspecified) | > 100 µM (inactive) | > 100 µM (inactive) | > 100 µM (inactive) | > 100 µM (inactive) | – | > 100 µM (inactive) | > 100 µM (inactive) | > 100 µM (inactive) | > 100 µM (inactive) | > 100 µM (inactive) | > 100 µM (inactive) | > 100 µM (inactive) | > 100 µM (inactive) | > 100 µM (inactive) | > 100 µM (inactive) | > 100 µM (inactive) | > 100 µM (inactive) |
| N#Cc1nc(-c2ccco2)oc1N | > 10 µM (inactive) | > 10 µM (inactive) | > 10 µM (inactive) | > 10 µM (inactive) | > 10 µM (inactive) | > 10 µM (inactive) | > 10 µM (inactive) | > 10 µM (inactive) | > 10 µM (inactive) | > 10 µM (inactive) | > 10 µM (inactive) | > 10 µM (inactive) | > 10 µM (inactive) | > 10 µM (inactive) | – | > 10 µM (inactive) | > 10 µM (inactive) |
| CSc1c(C(N)=S)c(N)nn1-c1ccccc1 | – | – | > 100 µM (inactive) | > 100 µM (inactive) | > 100 µM (inactive) | > 100 µM (inactive) | > 100 µM (inactive) | > 100 µM (inactive) | > 100 µM (inactive) | > 100 µM (inactive) | > 100 µM (inactive) | > 100 µM (inactive) | > 100 µM (inactive) | > 100 µM (inactive) | > 100 µM (inactive) | > 100 µM (inactive) | > 100 µM (inactive) |
| O=c1[nH]c(=O)n(C2OC(CO)C(O)C2O)cc1OCCc1ccccc1 (stereo unspecified) | > 100 µM (inactive) | > 100 µM (inactive) | > 100 µM (inactive) | > 100 µM (inactive) | – | > 100 µM (inactive) | > 100 µM (inactive) | > 100 µM (inactive) | > 100 µM (inactive) | > 100 µM (inactive) | > 100 µM (inactive) | > 100 µM (inactive) | > 100 µM (inactive) | > 100 µM (inactive) | – | > 100 µM (inactive) | > 100 µM (inactive) |
| CCN(CC)c1ncnc2c1ncn2CCNC(CO)(CO)CO | > 100 µM (inactive) | > 100 µM (inactive) | > 100 µM (inactive) | > 100 µM (inactive) | > 100 µM (inactive) | > 100 µM (inactive) | > 100 µM (inactive) | > 100 µM (inactive) | > 100 µM (inactive) | > 100 µM (inactive) | > 100 µM (inactive) | > 100 µM (inactive) | > 100 µM (inactive) | > 100 µM (inactive) | > 100 µM (inactive) | > 100 µM (inactive) | > 100 µM (inactive) |
| CN1C(=O)c2ccccc2OC12C=Cc1ccc(O)cc1O2 (stereo unspecified) | 23 µM (inactive) | 13.3 µM (inactive) | 22.3 µM (inactive) | 28.2 µM (inactive) | 24.1 µM (inactive) | 12.7 µM (inactive) | 16.4 µM (inactive) | 16.7 µM (inactive) | 23.2 µM (inactive) | 28.1 µM (inactive) | 21.3 µM (inactive) | 17.3 µM (inactive) | 19.5 µM (inactive) | 26.6 µM (inactive) | 24.8 µM (inactive) | 15.6 µM (inactive) | 28.8 µM (inactive) |
